Reference: patent publication US20100267561A1, “HERBICIDAL PYRIDAZINONE DERIVATIVES” (priority 2007, published 2010)

Experiments:
Format in all cases: in vivo
[1] = test system: barnyardgrass (Echinochloa crus-galli); assay: Test B flooded paddy test plant response
Procedure, shortened: (§1)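 Paddy-water application to 2-leaf plants in pots held under 3 cm of flooding; response is a 0–100 visual control rating against controls after 13 to 15 days, and a dash marks a missing result.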

rice (Oryza sativa) = assay: Test B flooded paddy test plant response
Procedure, shortened: as §1

[2] = test system: ducksalad (Heteranthera limosa); assay: Test B flooded paddy test plant response
Procedure, shortened: as §1

[3] = test system: umbrella sedge (Cyperus difformis); assay: Test B flooded paddy test plant response
Procedure, shortened: as §1

[4] = test system: downy bromegrass (Bromus tectorum); assay: Test B pre-/postemergence plant response
Procedure, shortened: (§2)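 Visual scoring from 0 (no effect) to 100 (complete control) against untreated controls was done 13 to 15 days after greenhouse treatment. Chemicals were formulated in a surfactant-containing non-phytotoxic solvent and applied to soil preemergence or to 1- to 4-leaf (2-18 cm) plants postemergence.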

soybean (Glycine max) = assay: Test B pre-/postemergence plant response
Procedure, shortened: as §2

wild oat (Avena fatua) = assay: Test B pre-/postemergence plant response
Procedure, shortened: as §2

[5] = test system: cocklebur (Xanthium strumarium); assay: Test B pre-/postemergence plant response
Procedure, shortened: as §2

[6] = test system: velvetleaf (Abutilon theophrasti); assay: Test B pre-/postemergence plant response
Procedure, shortened: as §2

[7] = test system: woolly cupgrass (Eriochloa villosa); assay: Test B pre-/postemergence plant response
Procedure, shortened: as §2

[8] = test system: wheat (Triticum aestivum); assay: Test B pre-/postemergence plant response
Procedure, shortened: as §2

[9] = test system: large crabgrass (Digitaria sanguinalis); assay: Test B pre-/postemergence plant response
Procedure, shortened: as §2

[10] = test system: catchweed bedstraw (Galium aparine); assay: Test B pre-/postemergence plant response; settings: Preemergence
Procedure, shortened: as §2

[11] = test system: bermudagrass (Cynodon dactylon); assay: Test B pre-/postemergence plant response
Procedure, shortened: as §2

[12] = Flood (flooded paddy test), 62 g ai/ha, scale 0 to 100, 0 no effect, 100 complete control
[13] = Flood (flooded paddy test), 125 g ai/ha, scale 0 to 100, 0 no effect, 100 complete control
[14] = Flood (flooded paddy test), 250 g ai/ha, scale 0 to 100, 0 no effect, 100 complete control
[15] = Flood, 31 g ai/ha, scale 0 to 100
[16] = Postemergence, 16 g ai/ha, scale 0 to 100
[17] = Postemergence, 31 g ai/ha, scale 0 to 100, 0 no effect, 100 complete control
[18] = Postemergence, 62 g ai/ha, scale 0 to 100
[19] = Preemergence, 16 g ai/ha, scale 0 to 100 (0 no effect, 100 complete control)
[20] = Preemergence, 31 g ai/ha, 0 to 100 scale, 0 no effect, 100 complete control
[21] = Preemergence, 62 g ai/ha, scale 0 to 100
[22] = Preemergence, 125 g ai/ha, scale 0 to 100
[23] = Postemergence, 125 g ai/ha, scale 0 to 100
[24] = 16 g ai/ha, scale 0 to 100 (0 no effect, 100 complete control)
[25] = 31 g ai/ha, 0 to 100 scale, 0 no effect, 100 complete control
[26] = Preemergence, 8 g ai/ha, scale 0 to 100
[27] = Preemergence, 31 g ai/ha, scale 0 to 100 (0 no effect, 100 complete control)
[28] = Preemergence, 62 g ai/ha, 0 to 100 scale, 0 no effect, 100 complete control

CCc1cc(-c2ccc(C(F)(F)F)cc2)nn1-c1c(OC(=O)OC(C)C)cnn(C)c1=O [Compound 12]
Plant response rating, Barnyardgrass [1, 12]: 30 | Plant response rating, Barnyardgrass [1, 13]: 60 | Plant response rating, Barnyardgrass [1, 14]: 80 | Plant response rating, Barnyardgrass [1, 15]: 0 | Plant response rating, Rice (rice (Oryza sativa); [12]): 20 | Plant response rating, Rice (rice (Oryza sativa); [13]): 70 | Plant response rating, Rice (rice (Oryza sativa); [14]): 80 | Plant response rating, Rice (rice (Oryza sativa); [15]): 0 | Plant response rating, Ducksalad [2, 12]: 0 | Plant response rating, Ducksalad [2, 13]: 40 | Plant response rating, Ducksalad [2, 14]: 50 | Plant response rating, Ducksalad [2, 15]: 0 | Plant response rating, Sedge, Umbrella [3, 12]: 40 | Plant response rating, Sedge, Umbrella [3, 13]: 60 | Plant response rating, Sedge, Umbrella [3, 14]: 60 | Plant response rating, Sedge, Umbrella [3, 15]: 0 | Plant response rating, Bromegrass, Downy [4, 16]: 85 | Plant response rating, Bromegrass, Downy [4, 17]: 85 | Plant response rating, Bromegrass, Downy [4, 18]: 85 | Plant response rating, Bromegrass, Downy [4, 19]: 0 | Plant response rating, Bromegrass, Downy [4, 20]: 0 | Plant response rating, Bromegrass, Downy [4, 21]: 70 | Plant response rating, Bromegrass, Downy [4, 22]: 75 | Plant response rating, Soybean (soybean (Glycine max); [16]): 0 | Plant response rating, Soybean (soybean (Glycine max); [17]): 0 | Plant response rating, Soybean (soybean (Glycine max); [18]): 0 | Plant response rating, Soybean (soybean (Glycine max); [23]): 0 | Plant response rating, Soybean (soybean (Glycine max); [19]): 0 | Plant response rating, Soybean (soybean (Glycine max); [20]): 0 | Plant response rating, Soybean (soybean (Glycine max); [21]): 0 | Plant response rating, Soybean (soybean (Glycine max); [22]): 0 | Plant response rating, Oat, Wild (wild oat (Avena fatua); [16]): 100 | Plant response rating, Oat, Wild (wild oat (Avena fatua); [17]): 100 | Plant response rating, Oat, Wild (wild oat (Avena fatua); [18]): 100 | Plant response rating, Oat, Wild (wild oat (Avena fatua); [23]): 100 | Plant response rating, Oat, Wild (wild oat (Avena fatua); [19]): 60 | Plant response rating, Oat, Wild (wild oat (Avena fatua); [20]): 90 | Plant response rating, Oat, Wild (wild oat (Avena fatua); [21]): 95 | Plant response rating, Oat, Wild (wild oat (Avena fatua); [22]): 98 | Plant response rating, Cocklebur [5, 16]: 0 | Plant response rating, Cocklebur [5, 17]: 0 | Plant response rating, Cocklebur [5, 18]: 0 | Plant response rating, Cocklebur [5, 23]: 0 | Plant response rating, Cocklebur [5, 19]: 0 | Plant response rating, Cocklebur [5, 20]: 0 | Plant response rating, Cocklebur [5, 21]: 0 | Plant response rating, Cocklebur [5, 22]: 0 | Plant response rating, Velvetleaf [6, 16]: 0 | Plant response rating, Velvetleaf [6, 17]: 0 | Plant response rating, Velvetleaf [6, 18]: 0 | Plant response rating, Velvetleaf [6, 23]: 30 | Plant response rating, Velvetleaf [6, 19]: 0 | Plant response rating, Velvetleaf [6, 20]: 0 | Plant response rating, Velvetleaf [6, 21]: 0 | Plant response rating, Velvetleaf [6, 22]: 0 | Plant response rating, Cupgrass, Woolly [7, 16]: 100 | Plant response rating, Cupgrass, Woolly [7, 17]: 100 | Plant response rating, Cupgrass, Woolly [7, 18]: 100 | Plant response rating, Cupgrass, Woolly [7, 23]: 100 | Plant response rating, Cupgrass, Woolly [7, 19]: 80 | Plant response rating, Cupgrass, Woolly [7, 20]: 85 | Plant response rating, Cupgrass, Woolly [7, 21]: 98 | Plant response rating, Cupgrass, Woolly [7, 22]: 100 | Plant response rating, Wheat [8, 16]: 90 | Plant response rating, Wheat [8, 17]: 95 | Plant response rating, Wheat [8, 18]: 95 | Plant response rating, Wheat [8, 23]: 100 | Plant response rating, Wheat [8, 19]: 20 | Plant response rating, Wheat [8, 20]: 90 | Plant response rating, Wheat [8, 21]: 95 | Plant response rating, Wheat [8, 22]: 95 | Plant response rating, Crabgrass, Large [9, 16]: 100 | Plant response rating, Crabgrass, Large [9, 17]: 100 | Plant response rating, Crabgrass, Large [9, 18]: 100 | Plant response rating, Crabgrass, Large [9, 23]: 100 | Plant response rating, Crabgrass, Large [9, 19]: 100 | Plant response rating, Crabgrass, Large [9, 20]: 100 | Plant response rating, Crabgrass, Large [9, 21]: 100 | Plant response rating, Crabgrass, Large [9, 22]: 100 | Plant response rating, Galium [10, 24]: 0 | Plant response rating, Galium [10, 25]: 0 | Plant response rating, Galium ([10]; 62 g ai/ha, scale 0 to 100): 0 | Plant response rating, Galium ([10]; 125 g ai/ha, scale 0 to 100): 0 | Plant response rating, Bermudagrass [11, 16]: 100 | Plant response rating, Bermudagrass [11, 17]: 100 | Plant response rating, Bermudagrass [11, 18]: 100 | Plant response rating, Bermudagrass [11, 23]: 100 | Plant response rating, Bermudagrass [11, 19]: 100 | Plant response rating, Bermudagrass [11, 20]: 100 | Plant response rating, Bermudagrass [11, 21]: 100 | Plant response rating, Bermudagrass [11, 22]: 100

Cc1cc(-c2ccc(Cl)cc2)nn1-c1c(OS(=O)(=O)c2cccc3ccccc23)cnn(C)c1=O [Compound 47]
Plant response rating, Barnyardgrass [1, 12]: 0 | Plant response rating, Barnyardgrass [1, 13]: 0 | Plant response rating, Barnyardgrass [1, 14]: 0 | Plant response rating, Barnyardgrass [1, 15]: 0 | Plant response rating, Rice (rice (Oryza sativa); [12]): 0 | Plant response rating, Rice (rice (Oryza sativa); [13]): 0 | Plant response rating, Rice (rice (Oryza sativa); [14]): 0 | Plant response rating, Rice (rice (Oryza sativa); [15]): 0 | Plant response rating, Ducksalad [2, 12]: 0 | Plant response rating, Ducksalad [2, 13]: 0 | Plant response rating, Ducksalad [2, 14]: 0 | Plant response rating, Ducksalad [2, 15]: 0 | Plant response rating, Sedge, Umbrella [3, 12]: 0 | Plant response rating, Sedge, Umbrella [3, 13]: 0 | Plant response rating, Sedge, Umbrella [3, 14]: 0 | Plant response rating, Sedge, Umbrella [3, 15]: 0 | Plant response rating, Bromegrass, Downy [4, 19]: 0 | Plant response rating, Bromegrass, Downy [4, 20]: 0 | Plant response rating, Bromegrass, Downy [4, 21]: 90 | Bromegrass, Downy plant response rating [4, 26]: 0 | Plant response rating, Soybean (soybean (Glycine max); [19]): 0 | Plant response rating, Soybean (soybean (Glycine max); [27]): 0 | Plant response rating, Soybean (soybean (Glycine max); [21]): 0 | Soybean plant response rating (soybean (Glycine max); [26]): 0 | Plant response rating, Oat, Wild (wild oat (Avena fatua); [19]): 0 | Plant response rating, Oat, Wild (wild oat (Avena fatua); [27]): 0 | Plant response rating, Oat, Wild (wild oat (Avena fatua); [21]): 70 | Oat, Wild plant response rating (wild oat (Avena fatua); [26]): 0 | Plant response rating, Cocklebur [5, 19]: 0 | Plant response rating, Cocklebur [5, 20]: 0 | Plant response rating, Cocklebur [5, 21]: 0 | Cocklebur plant response rating [5, 26]: 0 | Plant response rating, Velvetleaf [6, 19]: 0 | Plant response rating, Velvetleaf [6, 27]: 0 | Plant response rating, Velvetleaf [6, 28]: 0 | Velvetleaf plant response rating [6, 26]: 0 | Plant response rating, Cupgrass, Woolly [7, 19]: 100 | Plant response rating, Cupgrass, Woolly [7, 20]: 100 | Plant response rating, Cupgrass, Woolly [7, 21]: 100 | Cupgrass, Woolly plant response rating [7, 26]: 98 | Plant response rating, Wheat [8, 19]: 0 | Plant response rating, Wheat [8, 27]: 0 | Plant response rating, Wheat [8, 28]: 20 | Wheat plant response rating [8, 26]: 0 | Plant response rating, Crabgrass, Large [9, 19]: 85 | Plant response rating, Crabgrass, Large [9, 20]: 100 | Plant response rating, Crabgrass, Large [9, 21]: 100 | Crabgrass, Large plant response rating [9, 26]: 0 | Plant response rating, Galium [10, 24]: 0 | Plant response rating, Galium [10, 25]: 0 | Galium plant response rating ([10]; 8 g ai/ha, scale 0 to 100): 0 | Bermudagrass plant response rating ([11]; Preemergence, 8 g ai/ha, scale 0 to 100 (0 no effect, 100 complete control)): 60 | Plant response rating, Bermudagrass [11, 19]: 100 | Plant response rating, Bermudagrass [11, 20]: 100 | Plant response rating, Bermudagrass [11, 21]: 100
